In brackets after ≈: the same amount, converted by molar mass.
What was measured:
Assay type in all cases: functional
Bacillus pumilus = test: Antibacterial activity against Bacillus pumilus ATCC 14348
Staphylococcus aureus [1] = test: Antibacterial activity against Staphylococcus aureus ATCC 25923
Enterococcus faecalis [2] = test: Antibacterial activity against vancomycin-resistant Enterococcus faecalis ATCC 700802
Staphylococcus aureus [3] = test: Antibacterial activity against Staphylococcus aureus ATCC 9144
Enterococcus faecalis [4] = test: Antibacterial activity against Enterococcus faecalis ATCC 14506
Streptococcus pneumoniae = test: Antibacterial activity against penicillin-resistant Streptococcus pneumoniae ATCC 700904
Enterococcus faecalis [5] = test: Antibacterial activity against Enterococcus faecalis ATCC 35550
Staphylococcus aureus [6] = test: Antibacterial activity against Staphylococcus aureus ATCC 14154
Staphylococcus aureus [7] = test: Antibacterial activity against methicillin-resistant Staphylococcus aureus ATCC 700699
[8] = test system: Staphylococcus epidermidis; test: Antibacterial activity against Staphylococcus epidermidis ATCC 155
Staphylococcus aureus [9] = test: Antibacterial activity against linezolid-resistant Staphylococcus aureus NRS 119
Staphylococcus aureus [10] = test: Antibacterial activity against Staphylococcus aureus ATCC 29213
Streptococcus pyogenes = test: Antibacterial activity against Streptococcus pyogenes ATCC 14289

Work on `CC(=O)/C=C/C(=O)N1CCN(c2ccc(N3C[C@H](CNC(C)=O)OC3=O)cc2F)CC1` yielded an MIC (Bacillus pumilus) of 0.5 µg/mL (≈ 1.16 µM), an MIC (Staphylococcus aureus [1]) of 0.25 µg/mL (≈ 0.578 µM) and an MIC (Enterococcus faecalis [2]) of 2 µg/mL (≈ 4.62 µM). It also gave an MIC (Staphylococcus aureus [3]) of 1 µg/mL (≈ 2.31 µM), an MIC (Enterococcus faecalis [4]) of 4 µg/mL (≈ 9.25 µM) and an MIC (Streptococcus pneumoniae) of 0.5 µg/mL (≈ 1.16 µM). For the same molecule, the MIC (Enterococcus faecalis [5]) was 1 µg/mL (≈ 2.31 µM), the MIC (Staphylococcus aureus [6]) was 1 µg/mL (≈ 2.31 µM) and the MIC (Staphylococcus aureus [7]) was 1 µg/mL (≈ 2.31 µM). The MIC [8] was 0.25 µg/mL (≈ 0.578 µM) and the MIC (Staphylococcus aureus [9]) was > 16 µg/mL.

With `CC(=O)NC[C@H]1CN(c2ccc(N3CCN(C(=O)/C=C/C(=O)[O-])CC3)c(F)c2)C(=O)O1.[Na+]` the MIC (Bacillus pumilus) was > 16 µg/mL, the MIC (Staphylococcus aureus [1]) was > 16 µg/mL and the MIC (Enterococcus faecalis [5]) was > 16 µg/mL. For the same molecule, the MIC [8] was > 16 µg/mL.

`CC(=O)NC[C@H]1CN(c2ccc(N3CCN(C(=O)/C=C/C(=O)c4cccc5ccccc45)CC3)c(F)c2)C(=O)O1` was tested, and the MIC (Bacillus pumilus) was 1 µg/mL (≈ 1.84 µM), the MIC (Staphylococcus aureus [10]) was 2 µg/mL (≈ 3.67 µM) and the MIC (Staphylococcus aureus [1]) was 2 µg/mL (≈ 3.67 µM). It also gave an MIC (Enterococcus faecalis [2]) of 8 µg/mL (≈ 14.7 µM), an MIC (Staphylococcus aureus [3]) of 4 µg/mL (≈ 7.35 µM) and an MIC (Enterococcus faecalis [4]) of 1 µg/mL (≈ 1.84 µM). The MIC (Streptococcus pneumoniae) was 2 µg/mL (≈ 3.67 µM), the MIC (Enterococcus faecalis [5]) was 0.5 µg/mL (≈ 0.918 µM) and the MIC (Staphylococcus aureus [6]) was 4 µg/mL (≈ 7.35 µM). For the same molecule, the MIC (Staphylococcus aureus [7]) was 8 µg/mL (≈ 14.7 µM), the MIC [8] was 2 µg/mL (≈ 3.67 µM) and the MIC (Staphylococcus aureus [9]) was > 16 µg/mL. The MIC (Streptococcus pyogenes) was 0.5 µg/mL (≈ 0.918 µM).

Molecule `CC(=O)NC[C@H]1CN(c2ccc(N3CCN(C(=O)CO)CC3)c(F)c2)C(=O)O1` [EPEREZOLID] has an MIC (Bacillus pumilus) of 1 µg/mL (≈ 2.54 µM), an MIC (Staphylococcus aureus [10]) of 2 µg/mL (≈ 5.07 µM) and an MIC (Staphylococcus aureus [1]) of 2 µg/mL (≈ 5.07 µM). It also gave an MIC (Enterococcus faecalis [2]) of 1 µg/mL (≈ 2.54 µM), an MIC (Staphylococcus aureus [3]) of 2 µg/mL (≈ 5.07 µM) and an MIC (Enterococcus faecalis [4]) of 1 µg/mL (≈ 2.54 µM). For the same molecule, the MIC (Streptococcus pneumoniae) was 0.5 µg/mL (≈ 1.27 µM), the MIC (Enterococcus faecalis [5]) was 2 µg/mL (≈ 5.07 µM) and the MIC (Staphylococcus aureus [6]) was 2 µg/mL (≈ 5.07 µM). For the same molecule, the MIC (Staphylococcus aureus [7]) was 1 µg/mL (≈ 2.54 µM), the MIC (Staphylococcus aureus [9]) was > 16 µg/mL and the MIC (Streptococcus pyogenes) was 0.5 µg/mL (≈ 1.27 µM).

Molecule `CC(=O)NC[C@H]1CN(c2ccc(N3CCOCC3)c(F)c2)C(=O)O1` [LINEZOLID] has an MIC (Bacillus pumilus) of 2 µg/mL (≈ 5.93 µM), an MIC (Staphylococcus aureus [1]) of 1 µg/mL (≈ 2.96 µM) and an MIC (Streptococcus pneumoniae) of 0.25 µg/mL (≈ 0.741 µM). The MIC (Staphylococcus aureus [7]) was 1 µg/mL (≈ 2.96 µM), the MIC [8] was 1 µg/mL (≈ 2.96 µM) and the MIC (Staphylococcus aureus [9]) was > 16 µg/mL. For the same molecule, the MIC (Streptococcus pyogenes) was 0.25 µg/mL (≈ 0.741 µM).

For `COc1ccc(C(=O)/C=C/C(=O)N2CCN(c3ccc(N4C[C@H](C/N=C(/C)S)OC4=O)cc3F)CC2)cc1`, the MIC (Bacillus pumilus) was 0.5 µg/mL (≈ 0.925 µM), the MIC (Staphylococcus aureus [10]) was ≤ 0.12 µg/mL and the MIC (Staphylococcus aureus [1]) was 0.25 µg/mL (≈ 0.462 µM). The MIC (Staphylococcus aureus [3]) was ≤ 0.12 µg/mL, the MIC (Enterococcus faecalis [4]) was 1 µg/mL (≈ 1.85 µM) and the MIC (Streptococcus pneumoniae) was 1 µg/mL (≈ 1.85 µM). For the same molecule, the MIC (Enterococcus faecalis [5]) was 0.25 µg/mL (≈ 0.462 µM), the MIC (Staphylococcus aureus [6]) was 0.25 µg/mL (≈ 0.462 µM) and the MIC (Staphylococcus aureus [7]) was 0.5 µg/mL (≈ 0.925 µM). For the same molecule, the MIC [8] was 0.12 µg/mL (≈ 0.222 µM), the MIC (Staphylococcus aureus [9]) was > 16 µg/mL and the MIC (Streptococcus pyogenes) was 0.25 µg/mL (≈ 0.462 µM).
